# Results from patent US20240174723A1, “STAPLED ANTIMICROBIAL PEPTIDES (STAMPS) AND USES THEREOF” (Lytica Therapeutics, Inc., priority 2021, published 2024).
# Positions of bridges follow the written chain, without caps; N, C: chain ends. Non-standard residues stand in square brackets, D forms with d. Residues, ends and D or L forms follow the SMILES beside them. S5 = C=CCCC[C@](C)(N)C(=O)O; Dap = NC[C@H](N)C(=O)O
# Key:
# E. coli = type: cell-based, Escherichia coli
# In short: (§1)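 Colonies are grown overnight at 37 °C, diluted and regrown 3-4 h. Bacteria in MHB or MHB II are then added to serial peptide dilutions to reach 5×10^5 CFU/ml. Plates are incubated 20-24 h at 37 °C and scored for the lowest concentration without visible growth.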
# A. baumannii = type: cell-based, Acinetobacter baumannii
# In short: as §1
# P. aeruginosa = type: cell-based, Pseudomonas aeruginosa
# In short: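 MIC taken as lowest peptide concentration with no visible growth after 20-24 h at 37 °C. Peptide serial dilutions from water stocks met P. aeruginosa inoculum (5×10^5 CFU/ml final) in MHB or MHB II, per a CLSI-adapted microbroth protocol.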
# K. pneumoniae = type: cell-based, Klebsiella pneumoniae
# In short: as §1
# S. aureus = type: cell-based, Staphylococcus aureus
# In short: as §1
# in vitro [1] = type: cell-based; settings: human
# Experimental: Cell culture: RPTEC were maintained in MEM media supplemented with growth factors. HEPG2 cell line was maintained in Eagle's Minimum Essential Medium (EMEM) supplemented with fetal bovine serum to a final concentration of 10%.
# 90 minute cytotoxicity assay: Cells were plated in a 96-well format, and after overnight incubation, media was replaced with fresh media. Serial dilutions of StAMPs from a 5 mg/mL water stock, or vehicle, were added to the cells in a final volume of 100 μl. After incubating at 37° C. for 90 min, 50 μl of cell culture media was transferred to a clear 96-well plate, incubated with 50 μl of lactate dehydrogenase (LDH) assay reagent for 10 min, and absorbance measured at 490 nm on a microplate reader.
# Renal toxicity was measured after 90 minutes of incubation, while liver toxicity was measured after 48 hours of incubation with StAMPs. N/A=not tested. The following apply to all peptides (i.e., StAMPs) listed in Tables A-C: Crosslinks (X^1—X^2 and X^3—X^4): (alk); N-terminus: —NH2; C-terminus: amidated with —NH2; counterion: Cl^−. The following apply to all peptides (i.e., StAMPs) listed in Table D: Crosslinks (X^1—X^2 and X^3—X^4): (alk); N-terminus: —NH2; C-terminus: as shown in table; counterion: Cl^−.
# StAMP Micelle Formulation: DSPE-MPEG(2000) was suspended in buffered saline at 50-100 mg/mL overnight. StAMP stock solutions at 5-20 mg/mL in buffered saline were prepared and equal volumes of micelle and StAMP stock solution were mixed at the desired StAMP:Lipid ratio. Suspensions were allowed to sit for 5-10 minutes at room temperature before being used in in vitro and in vivo assays.
# In Table E, the StAMP is StAMP 4 (Table A) and “Lipid”=DSPE-MPEG(2000).
# in vitro [2] = type: cell-based; settings: human, Inhibitory Concentration at 50% Cytotoxicity (IC50) Human Liver Cells (HepG2)
# In short: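 Cytotoxicity read by CellTiter-Glo luminescence after 48 h at 37 °C exposure to serially diluted StAMPs or vehicle. HepG2 cells were grown in EMEM plus 10% FBS and given 4 h to attach before dosing; peptides came from a 5 mg/mL aqueous stock.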
Minimum Inhibitory Concentration (MIC) E. coli (E. coli) [µg/mL],Minimum Inhibitory Concentration (MIC) A. baumannii (A. baumannii) [µg/mL],Minimum Inhibitory Concentration (MIC) P. aeruginosa (P. aeruginosa) [µg/mL],Minimum Inhibitory Concentration (MIC) K. pneumoniae (K. pneumoniae) [µg/mL],Minimum Inhibitory Concentration (MIC) S. aureus (S. aureus) [µg/mL],IC50 at 90 min (in vitro [1]) [µg/mL],SMILES,IC50 at 48 hours (in vitro [2]) [µg/mL]
4,4,6,4,32,16,"CC(C)[C@@H]1NC(=O)[C@@](C)(NC(=O)[C@H](C)NC(=O)[C@H](CCCCN)NC(=O)CNC(=O)[C@H](Cc2ccccc2)NC(=O)[C@H](CCCCN)NC(=O)[C@H](CCCCN)NC(=O)[C@H](CCCCN)NC(=O)[C@H](CO)NC(=O)[C@H](Cc2c[nH]cn2)NC(=O)[C@]2(C)CCCC=CCCC[C@](C)(NC(=O)CN)C(=O)NCC(=O)N[C@@H](CCCCN)C(=O)N[C@@H](Cc3ccccc3)C(=O)N2)CCCC=CCCC[C@@](C)(C(=O)N[C@@H](C)C(=O)N[C@@H](CCCCN)C(=O)N[C@@H](CCCCN)C(N)=O)NC(=O)[C@H](Cc2c[nH]c3ccccc23)NC(=O)CNC1=O [compound 66] (H-G[S5]GKF[S5]HSKKKFGKA[S5]VGW[S5]AKK-NH2; staple 2-6, 16-20)",38
4,4,4,4,>64,100,"CC(C)[C@@H]1NC(=O)[C@@](C)(NC(=O)[C@H](C)NC(=O)[C@H](CCCCN)NC(=O)CNC(=O)[C@H](Cc2ccccc2)NC(=O)[C@H](CCCCN)NC(=O)[C@H](CCCCN)NC(=O)[C@H](CCCCN)NC(=O)[C@H](CCCCN)NC(=O)[C@H](CCCCN)NC(=O)[C@]2(C)CCCC=CCCC[C@](C)(NC(=O)CN)C(=O)NCC(=O)N[C@@H](CCCCN)C(=O)N[C@@H](Cc3ccccc3)C(=O)N2)CCCC=CCCC[C@@](C)(C(=O)N[C@@H](CCCCN)C(N)=O)NC(=O)[C@H](CCC(=O)O)NC(=O)CNC1=O [compound 27] (H-G[S5]GKF[S5]KKKKKFGKA[S5]VGE[S5]K-NH2; staple 2-6, 16-20)",117
16,8,32,>64,>64,> 200,"CC(C)[C@@H]1NC(=O)[C@@](C)(NC(=O)[C@H](C)NC(=O)[C@H](CCCCN)NC(=O)CNC(=O)[C@H](Cc2ccccc2)NC(=O)[C@H](CCCCN)NC(=O)[C@H](CCCCN)NC(=O)[C@H](CCCCN)NC(=O)[C@H](CO)NC(=O)[C@H](Cc2c[nH]cn2)NC(=O)[C@]2(C)CCCC=CCCC[C@](C)(NC(=O)CN)C(=O)NCC(=O)N[C@@H](Cc3c[nH]c4ccccc34)C(=O)N[C@@H](Cc3ccccc3)C(=O)N2)CCCC=CCCC[C@@](C)(C(=O)N[C@@H](C)C(=O)N[C@@H](CCCCN)C(=O)N[C@@H](CCCCN)C(N)=O)NC(=O)[C@H](CCC(=O)O)NC(=O)CNC1=O [compound 58] (H-G[S5]GWF[S5]HSKKKFGKA[S5]VGE[S5]AKK-NH2; staple 2-6, 16-20)",> 200
2,2,4,4,>64,214,"CC(C)[C@@H]1NC(=O)[C@@](C)(NC(=O)[C@H](C)NC(=O)[C@H](CCCCN)NC(=O)CNC(=O)[C@H](Cc2ccccc2)NC(=O)[C@H](CCCCN)NC(=O)[C@H](CCCCN)NC(=O)[C@H](CCCCN)NC(=O)[C@H](CO)NC(=O)[C@H](Cc2c[nH]cn2)NC(=O)[C@]2(C)CCCC=CCCC[C@](C)(NC(=O)CN)C(=O)NCC(=O)N[C@@H](CCCCN)C(=O)N[C@@H](Cc3ccccc3)C(=O)N2)CCCC=CCCC[C@@](C)(C(=O)N[C@@H](C)C(=O)N[C@@H](CCCCN)C(=O)N[C@@H](CCCCN)C(N)=O)NC(=O)[C@H](CCC(=O)O)NC(=O)[C@H](Cc2ccccc2)NC1=O [compound 14] (H-G[S5]GKF[S5]HSKKKFGKA[S5]VFE[S5]AKK-NH2; staple 2-6, 16-20)",222
8,4,16,>64,>64,> 200,"CC(C)[C@@H]1NC(=O)[C@@](C)(NC(=O)[C@H](C)NC(=O)[C@H](CCCCN)NC(=O)CNC(=O)[C@H](Cc2ccccc2)NC(=O)[C@H](CCCCN)NC(=O)[C@H](CCCCN)NC(=O)[C@H](CCCCN)NC(=O)[C@H](Cc2ccc(O)cc2)NC(=O)[C@H](Cc2c[nH]cn2)NC(=O)[C@]2(C)CCCC=CCCC[C@](C)(NC(=O)CN)C(=O)NCC(=O)N[C@@H](CCCCN)C(=O)N[C@@H](Cc3ccccc3)C(=O)N2)CCCC=CCCC[C@@](C)(C(=O)N[C@@H](C)C(=O)N[C@@H](CCCCN)C(=O)N[C@@H](CCCCN)C(N)=O)NC(=O)[C@H](CCC(=O)O)NC(=O)CNC1=O [compound 9] (H-G[S5]GKF[S5]HYKKKFGKA[S5]VGE[S5]AKK-NH2; staple 2-6, 16-20)",> 200
16,8,2,16,>64,> 200,"CC(C)[C@@H]1NC(=O)[C@@](C)(NC(=O)[C@H](C)NC(=O)[C@H](CN)NC(=O)CNC(=O)[C@H](Cc2ccccc2)NC(=O)[C@H](CN)NC(=O)[C@H](CN)NC(=O)[C@H](CN)NC(=O)[C@H](CN)NC(=O)[C@H](CN)NC(=O)[C@]2(C)CCCC=CCCC[C@](C)(NC(=O)CN)C(=O)NCC(=O)N[C@@H](CN)C(=O)N[C@@H](Cc3ccccc3)C(=O)N2)CCCC=CCCC[C@@](C)(C(=O)N[C@@H](C)C(=O)N[C@@H](CCCCN)C(=O)N[C@@H](CCCCN)C(N)=O)NC(=O)[C@H](CCC(=O)O)NC(=O)CNC1=O [compound 78] (H-G[S5]G[Dap]F[S5][Dap][Dap][Dap][Dap][Dap]FG[Dap]A[S5]VGE[S5]AKK-NH2; staple 2-6, 16-20)",> 200
4,4,8,32,>64,108,"CC(C)[C@@H]1NC(=O)[C@@](C)(NC(=O)[C@H](C)NC(=O)[C@H](CCCCN)NC(=O)CNC(=O)[C@H](Cc2ccccc2)NC(=O)[C@H](CCCCN)NC(=O)[C@H](CCCCN)NC(=O)[C@H](CCCCN)NC(=O)[C@H](CO)NC(=O)[C@H](Cc2c[nH]c3ccccc23)NC(=O)[C@]2(C)CCCC=CCCC[C@](C)(NC(=O)CN)C(=O)NCC(=O)N[C@@H](CCCCN)C(=O)N[C@@H](Cc3ccccc3)C(=O)N2)CCCC=CCCC[C@@](C)(C(=O)N[C@@H](C)C(=O)N[C@@H](CCCCN)C(=O)N[C@@H](CCCCN)C(N)=O)NC(=O)[C@H](CCC(=O)O)NC(=O)CNC1=O [compound 60] (H-G[S5]GKF[S5]WSKKKFGKA[S5]VGE[S5]AKK-NH2; staple 2-6, 16-20)",56
